The structures appear in SMILES notation. Counter-ions that a name gives are not always drawn.

Tested on in one data set: not given
Test: not given
`COC(=O)C1=C(C)N(C)C(CCN2CCCC2)=C(C(=O)OC)C1c1ccc(C(F)(F)F)cc1.Cl` (centres unmarked) displayed a melting point of 218 to 219 °C. Compound `COC(=O)C1=C(C)N(C)C(CCN2CCOCC2)=C(C(=O)OC)C1c1ccc(C(F)(F)F)cc1.Cl` (centres unmarked) yielded a melting point of 188 to 193 °C. The same measure, in the same setting: the result for `COC(=O)C1=C(C)N(C)C(CCN2CCOCC2)=C(C(=O)OC)C1c1ccccc1Cl.Cl` (centres unmarked) reads 171 to 173 °C. Still for that read-out and setting: for `COC(=O)C1=C(C)N(C)C(CCN2CCc3ccccc3CC2)=C(C(=O)OC)C1c1ccc(C(F)(F)F)cc1.O=C(O)/C=C/C(=O)O` (centres unmarked) the value was 202 to 203 °C.

Compound `COC(=O)C1=C(C)N(C)C(CN2CCCC2)=C(C(=O)OC)C1c1ccc(C(F)(F)F)cc1.Cl` (centres unmarked) displayed a melting point of 182 to 185 °C. In the case of `COC(=O)C1=C(C)N(C)C(CN2CCCCC2)=C(C(=O)OC)C1c1ccc(C(F)(F)F)cc1.Cl` (centres unmarked), the melting point fell in the range of 190 to 192 °C. Still for that read-out and setting: for `COC(=O)C1=C(C#N)N(C)C(CN2CCCC2)=C(C(=O)OC)C1c1ccc(C(F)(F)F)cc1.Cl` (centres unmarked) the value was 173 to 175 °C; for `COC(=O)C1=C(C#N)N(C)C(CCN(C)C)=C(C(=O)OC)C1c1ccc(C(F)(F)F)cc1.Cl` (centres unmarked), 215 to 216 °C; for `COC(=O)C1=C(CCN2CCN(C)CC2)N(C)C(CCN2CCN(C)CC2)=C(C(=O)OC)C1c1ccccc1Cl` (as salt: hydrochloride), 210 to 215 °C. `COC(=O)C1=C(CCN2CCN(C)CC2)N(C)C(CCN2CCN(C)CC2)=C(C(=O)OC)C1c1ccc(C(F)(F)F)cc1` (as salt: hydrochloride) [Example 16, Dimethyl 1-methyl-2,6-bis-[2-(4-methyl-piperazin-1-yl)-ethyl]-4-(4-trifluoromethylphenyl)-1,4-dihydropyridine-3,5-dicarboxylate hydrochloride] came in with a melting point of 195 to 200 °C. Same read-out and setting: the result for `COC(=O)C1=C(CCN2CCCC2)N(C)C(CCN2CCCC2)=C(C(=O)OC)C1c1ccccc1Cl` (as salt: hydrochloride) [Example 19, Dimethyl 4-(2-chlorophenyl)-1-methyl-2,6-bis-(2-pyrrolidin-1-yl-ethyl)-1,4-dihydropyridine-3,5-dicarboxylate dihydrochloride] reads 188 to 193 °C; that for `COC(=O)C1=C(CCN(C)C)N(C)C(CCN(C)C)=C(C(=O)OC)C1c1ccccc1Cl` (as salt: hydrochloride) [Example 22, Dimethyl 4-(2-chorophenyl)-2,6-bis-(2-dimethylaminoethyl)-1-methyl-1,4-dihydropyridine-3,5-dicarboxylate dihydrochloride], 241 to 245 °C. As to `COC(=O)C1=C(CCN(C)C)N(C)C(CCN(C)C)=C(C(=O)OC)C1c1cc(F)cc(F)c1` (as salt: hydrochloride) [Example 25, Dimethyl 4-(3,5-Difluorophenyl)-2,6-bis-(2-dimethylaminoethyl)-1-methyl-1,4-dihydropyridine-3,5-dicarboxylate dihydrochloride], the melting point lay in the range of 261 to 265 °C. Still for that read-out and setting: for `COC(=O)C1=C(CCN(C)C)N(C)C(CCN2CCCCC2)=C(C(=O)OC)C1c1ccc(C(F)(F)F)cc1` (centres unmarked) (as salt: hydrochloride) [Example 30, Dimethyl 2-(2-dimethylamino-ethyl)-1-methyl-6-(2-piperidin-1-yl-ethyl)-4-(4-trifluoromethylphenyl)-1,4-dihydropyridine-3,5-dicarboxylate dihydrochloride] the value was 247 to 249 °C; for `COC(=O)C1=C(CCN(C)C)N(C)C(CCN2CCOCC2)=C(C(=O)OC)C1c1ccc(C(F)(F)F)cc1` (centres unmarked) (as salt: hydrochloride) [Example 31, Dimethyl 2-(2-dimethylamino-ethyl)-1-methyl-6-(2-morpholin-1-yl-ethyl)-4-(4-trifluoromethylphenyl)-1,4-dihydropyridine-3,5-dicarboxylate dihydrochloride], 247 to 248 °C; for `COC(=O)C1=C(CCN(C)C)N(C)C(CCN2CCc3cc(OC)c(OC)cc3C2)=C(C(=O)OC)C1c1ccc(C(F)(F)F)cc1` (centres unmarked) (as salt: hydrochloride) [Example 42, Dimethyl 2-[2-(6,7-dimethoxy-1,2,3,4-tetrahydroisoquinolin-2-yl)-ethyl]-6-(2-dimethylamino-ethyl)-1-methyl-4-(4-trifluoromethylphenyl)-1,4-dihydropyridine-3,5-dicarboxylate dihydrochloride], 210 to 211 °C. The same measure, in the same setting: the result for `COC(=O)C1=C(C)N(C)C(C)=C(C(=O)OC)C1c1ccc(Cl)cc1` [Example 4, Dimethyl 1,2,6-trimethyl-4-(4-chlorophenyl)-1,4-dihydropyridine-3,5-dicarboxylate] reads 179 to 180 °C.

`COC(=O)C1=C(C)N(C)C(C)=C(C(=O)OC)C1c1ccc(C)cc1` [Example 5, Dimethyl 1,2,6-trimethyl-4-(4-methylphenyl)-1,4-dihydropyridine-3,5-dicarboxylate] returned a melting point of 176 to 178 °C. Still for that read-out and setting: the result for `COC(=O)C1=C(C)N(C)C(C)=C(C(=O)OC)C1c1ccc(OC)cc1` [Example 6, Dimethyl 1,2,6-trimethyl-4-(4-methoxyphenyl)-1,4-dihydropyridine-3,5-dicarboxylate] reads 163 to 164 °C; that for `COC(=O)C1=C(C)N(C)C(C)=C(C(=O)OC)C1c1ccccc1Cl` [Example 18, Dimethyl 4-(2-chlorophenyl)-1,2,6-trimethyl-1,4-dihydropyridine-3,5-dicarboxylate], 154 to 155 °C; that for `COC(=O)C1=C(C)N(C)C(C)=C(C(=O)OC(C)C)C1c1ccc(C(F)(F)F)cc1` (centres unmarked) [Example 28, 1,2,6-Trimethyl-4-(4-trifluoromethylphenyl)-1,4-dihydropyridine-3,5-dicarboxylic acid 3-isopropyl ester 5-methyl ester], 92 to 94 °C.

Take `COC(=O)C1=C(C)N(C)C(C)=C(C(=O)OC(C)(C)C)C1c1ccc(C(F)(F)F)cc1` (centres unmarked) [Example 29, 1,2,6-Trimethyl-4-(4-trifluoromethylphenyl)-1,4-dihydropyridine-3,5-dicarboxylic acid 3-tert-butyl ester 5-methyl ester]: the melting point was 128 to 130 °C. On the same count and under the same terms, for `COC(=O)C1=C(C)N(C)C(C)=C(C(=O)O)C1c1ccc(C(F)(F)F)cc1` (centres unmarked) [Example 35, 1,2,6-Trimethyl-4-(4-trifluoromethylphenyl)-1,4-dihydropyridine-3,5-dicarboxylic acid monomethyl ester] the value was 150 to 155 °C.

Turning to `CC1=C(C(=O)O)C(c2ccc(C(F)(F)F)cc2)C(C(=O)O)=C(C)N1C` [Example 36, 1,2,6-Trimethyl-4-(4-trifluoromethylphenyl)-1,4-dihydropyridine-3,5-dicarboxylic acid], the melting point lay within 152 to 153 °C. Still for that read-out and setting: for `COC(=O)C1=C(C)N(C)C(CN2CCc3ccccc3C2)=C(C(=O)OC)C1c1ccc(C(F)(F)F)cc1.Cl` (centres unmarked) [Example 49, Dimethyl 2-(1,2,3,4-tetrahydro-1H-isoquinolin-2-ylmethyl)-1,6-dimethyl-4-(4-trifluoromethylphenyl)-1,4-dihydropyridine-3,5-dicarboxylate hydrochloride] the value was 175 to 177 °C.

Another data set has as its system other Hsps. Description: Other in vitro HSP modulating effects (Table 3). Also on record: key: +: co-inducing activity; −: silencing activity; 0: with the experimental methods applied no other HSP modulating effects could be identified. In kind it is cell-based, mouse and human. Here is the method:
The Hsp co-inducing effect of the compounds on stress response was tested on B16 mouse melanoma and SHSY5Y human neuroblastoma cell lines stably transfected with Hsp promoter probing plasmids. This kind of promoter probing, using the promoter region of a given gene conjugated with fluorescent protein is used as a best and fastest test system for finding drugs which modulate the activity of the gene followed by the given promoter (Wyshocka et al., Mol. Cel. Biochem. 215:153-156, 2000).
Reporter plasmids, containing the Hsp70 and/or Hsp25 promoter conjugated to either YFP or GFP (yellow or green fluorescent protein), were stably transfected into the cells and the expression of YFP or GFP was followed by flow cytometry. Cells were either kept at 37° C. or exposed to heat shock at 42° C. for 1 hour followed by a 16 hour recovery period at 37° C. in the presence or absence of different concentrations of the test compound. After recovery the expression of YFP or GFP which is in straight correlation with the promoter activity of Hsp70 or Hsp27 genes was followed by measuring the fluorescence intensity of the cells by flow cytometry. Fluorescence intensity is in straight correlation with the amount of fluorescent protein (GFP or YFP) produced under the control of hsp promoter. The mean fluorescence intensity of YFP or GFP produced is shown as “Hsp promoter activity”.
Cells were homogenously distributed on 6-well plates in 1×10^5 cells/well density. B16-pHsp25-GFP and B16-pHsp70-YFP melanoma cells were grown in RPMI-1640 medium supplemented with 10% Fetal bovine serum (FBS), penicillin (200 units/ml), streptomycin (200 μg/ml) and 2 mM L-Glutamine. For maintaining the SH-SY5Y-pHsp25-GFP and SH-SY5YpHsp70-YFP neuroblastoma cell lines Dulbecco's modified Eagle's medium (DMEM-F-12) containing 10% FBS, 2 mM L-Glutamine, penicillin (200 units/ml), streptomycin (200 μg/ml) and MEM non-essential amino acids were used. Before the treatments both cell lines were incubated at 37° C. in a saturated humidity atmosphere containing 95% air and 5% CO2. After 24 h incubation cells were pretreated with compounds of the invention in four different concentrations (usually in 3; 10; 20 and 50 μM) 30 min before the heat shock at 42° C. for 1 h and then incubated further at 37° C. for 16 h (recovery period). After this procedure cells were trypsinized and suspensed in 500 μl serum-free DMEM-F12 medium. The changes in cells' fluorescence were detected using BD FACSCalibur flow cytometer.
SY-SY5Y and B16 cells were extracted in NP-40 lysis buffer (PBS pH 7.4, 1% protease inhibitor coctail and 1% Triton X-100). The cell extracts were then constantly agitated at 4° C. for 2 h. The cell extracts were centrifuged at 12000×g for 30 min and supernatants were saved. After the protein concentration measurement 15 μg of total protein was separated by sodium dodecyl sulfate-polyacrylamide gel electrophoresis (SDS-PAGE) under reducing conditions according to the method of Laemmli. Proteins were blotted onto PVDF membrane. The blot was incubated overnight at 4° C. in the presence of mouse α-Hsp25, α-Hsp70, α-Hsp60 és α-Hsp90 monoclonal antibodies diluted in PBS. Then, the membrane was washed three times in PBS-0.05% Tween and incubated for 1 h in peroxidase-conjugated anti-mouse IgG antibody diluted 1:50000 in PBS containing 3% non-fat dry milk. The immune complexes were detected with chemo-luminescent substrate of peroxidase according to the supplier's instructions. Images taken from the membranes were analyzed using AlphaEase FC software.
In the case of `COC(=O)C1=C(C)N(C)C(C)=C(C(=O)OC)C1c1ccc(Cl)cc1` [Example 4, Dimethyl 1,2,6-trimethyl-4-(4-chlorophenyl)-1,4-dihydropyridine-3,5-dicarboxylate], the “Other in vitro effects” value was 0. Turning to `COC(=O)C1=C(C)N(C)C(C)=C(C(=O)OC)C1c1ccc(OC)cc1` [Example 6, Dimethyl 1,2,6-trimethyl-4-(4-methoxyphenyl)-1,4-dihydropyridine-3,5-dicarboxylate], the “Other in vitro effects” value came out at 0. For the compound `COC(=O)C1=C(CCN2CCN(C)CC2)N(C)C(CCN2CCN(C)CC2)=C(C(=O)OC)C1c1ccc(C(F)(F)F)cc1` [Example 16, Dimethyl 1-methyl-2,6-bis-[2-(4-methyl-piperazin-1-yl)-ethyl]-4-(4-trifluoromethylphenyl)-1,4-dihydropyridine-3,5-dicarboxylate hydrochloride], the “Other in vitro effects” value was found to be 0. The same measure, in the same setting: the result for `COC(=O)C1=C(C)N(C)C(CN2CCc3ccccc3C2)=C(C(=O)OC)C1c1ccc(C(F)(F)F)cc1.Cl` (centres unmarked) [Example 49, Dimethyl 2-(1,2,3,4-tetrahydro-1H-isoquinolin-2-ylmethyl)-1,6-dimethyl-4-(4-trifluoromethylphenyl)-1,4-dihydropyridine-3,5-dicarboxylate hydrochloride] reads 0.
